Results published in patent US8648078B2, “PLK inhibitor salts” (Nerviano Medical Sciences S.R.L., priority 2009, dated 2014).

Tests used:
Assay type in all cases: physicochemical
[1] = Hygroscopicity test by Dynamic Vapour Sorption (DVS); conditions: for Water uptake: 25° C.
Protocol: The apparatus is a “controlled atmosphere microbalance” where the weighed sample is exposed to programmed variations of the relative humidity (RH) at a constant and controlled temperature. The measured parameters (weight, time and RH), reported in Excel worksheets, allow obtaining hygroscopicity curves over the tested RH range. Sorption/desorption cycles between 0% and 90% RH can be performed at controlled temperature of 25° C. Progressive variations of RH are of 10%; they are operated by the software at the equilibration of the sample weight. This condition can be defined at a constant rate of percent weight variation e.g. 0.005%/min. The experimental results are reported both as in the DVS Isotherm Reports and Isotherm Plots.

[2] = Solid state stability on storage at stressed temperature and humidity; conditions: storage at 40° C./75% RH
[3] = Aqueous solubility of compound 937 salts and free base (excess solid stirred in water, filtered, HPLC); conditions: thermodynamic from solid, RT, stirred 4 hours, excess solid (target 10 mg/ml)
Source text: The obtained preparations have been filtered and analyzed by means of HPLC.

[4] = Solubility of compound 937 in early formulation vehicles / as in situ salt; conditions: aqueous with cosolvent or surfactant or cyclodextrin; in 10% polysorbate 80 in 5% dextrose solution

In the case of CN1CCN(c2ccc(OC(F)(F)F)c(Nc3ncc4c(n3)-c3c(c(C(N)=O)nn3CCO)CC4)c2)CC1.O=C(O)C(O)C(O)C(=O)O [compound 937 L-tartrate salt], the “hygroscopicity (in words)” value [1] was “moderately hygroscopic” and the Water uptake ([1]; 90% RH) was roughly 5.8%.

Compound CN1CCN(c2ccc(OC(F)(F)F)c(Nc3ncc4c(n3)-c3c(c(C(N)=O)nn3CCO)CC4)c2)CC1.O=C(O)/C=C/C(=O)O [compound 937 fumarate salt] has a Water uptake ([1]; 90% RH) of 1.6%, a Water uptake ([1]; DVS sorption ramp, 0.0% RH) of 0.0% and a Water uptake ([1]; DVS sorption ramp, 10.0% RH) of 0.1%. It also gave a Water uptake ([1]; DVS sorption ramp, 20.0% RH) of 0.3%, a Water uptake ([1]; DVS sorption ramp, 30.0% RH) of 0.4% and a Water uptake ([1]; DVS sorption ramp, 40.0% RH) of 0.6%. It also gave a Water uptake ([1]; DVS sorption ramp, 50.0% RH) of 0.9%, a Water uptake ([1]; DVS sorption ramp, 60.0% RH) of 1.2% and a Water uptake ([1]; DVS sorption ramp, 70.0% RH) of 1.4%. The Water uptake ([1]; DVS sorption ramp, 80.0% RH) was 1.5%.

With CN1CCN(c2ccc(OC(F)(F)F)c(Nc3ncc4c(n3)-c3c(c(C(N)=O)nn3CCO)CC4)c2)CC1.O=C(O)C[C@H](O)C(=O)O [compound 937 L-malate salt] the “hygroscopicity (in words)” value [1] was “moderately hygroscopic” and the Water uptake ([1]; 90% RH) was “about 4.7%”.

For CN1CCN(c2ccc(OC(F)(F)F)c(Nc3ncc4c(n3)-c3c(c(C(N)=O)nn3CCO)CC4)c2)CC1.O=C(O)/C=C\C(=O)O [compound 937 maleate salt form II], the “solid form stability (in words)” value [2] was “undergoes conversion to form I” and the “hygroscopicity (in words)” value [1] was “moderately hygroscopic”.

With CN1CCN(c2ccc(OC(F)(F)F)c(Nc3ncc4c(n3)-c3c(c(C(N)=O)nn3CCO)CC4)c2)CC1.O=C(O)CCC(=O)O [compound 937 succinate salt form II] the “solid form stability (in words)” value [2] was “stable”.

With CN1CCN(c2ccc(OC(F)(F)F)c(Nc3ncc4c(n3)-c3c(c(C(N)=O)nn3CCO)CC4)c2)CC1 [compound 937, 1-(2-hydroxy-ethyl)-8-[5-(4-methyl-piperazin-1-yl)-2-trifluoromethoxy-phenylamino]-4,5-dihydro-1H-pyrazolo[4,3-h]quinazoline-3-carboxamide] the solubility at 4 h [3] was less than 100 µg/mL and the solubility [4] was roughly 4000 µg/mL.
